Results taken from patent publication US9481734B2, “Immunoglobulin cleavage fragments and disease indicators and compositions for detecting and binding such” (Janssen Biotech, Inc., priority 2007, dated 2016).
No end group written: not given here. *: point of attachment. Biotin = O=C1N[C@H]2[C@H](CS[C@H]2CCCCC(=O)*)N1

Experiments:
[1] = system: Fab fragment of the 2095-2 antibody; settings: Biacore, 25° C., 1:1 (Langmuir) model
Protocol: The specificity of binding was further examined using a Fab fragment of the 2095-2 antibody using a surface plasmon resonance platform (Biacore). Briefly, the Fab was immobilized to a CM5 sensor chip in a Biacore 2000 at three different surface densities (8500, 1650, and 350 RU) using standard NHS/EDC coupling. The running buffer contained 10 mM HEPES pH 7.4, 150 mM NaCl, and 0.01% Tween-20. Data were collected at 25° C.
Three N-terminally biotinylated peptides were tested for binding of to the immobilized Fab: WT, representing the expected sequence of a peptide fragment from a human IgG1 cleavage site after cleavage by the Streptococcus pyogenes IdeS protease; E233A, representing a variant of having a single alanine substitution at the amino acid residue four positions upstream of the C-terminus; and L234A, a variant having a single alanine substitution at the amino acid residue three positions upstream from the C-terminus. The peptides were modified by substituting serine for cysteine to make them compatible with the coupling chemistry and preserve the monomeric structure.
Peptides Wild type and E233A were tested in a 3-fold dilution series using 588 nM and 2.9 uM as the highest concentration, respectively. Peptide L234A was tested at 14.7 uM as the highest concentration in a 2-fold dilution series. Each peptide concentration series was tested in triplicate over the three different density Fab surfaces. The association and dissociation were monitored for 1 minute. Surfaces were regenerated with a 12 second injection of 1/500 dilution of phosphoric acid.

[2] = system: S. aureus (ATCC 29213); assay: Wiffle ball (tissue cage) S. aureus infection model in rabbits; format: in vivo; settings: day 2 after inoculation with 6.2 log 10 CFUs, immunized rabbits
Source text: In order to test the capacity of cleavage site specific antibodies to rescue cleaved IgGs in vivo, a model for bacterial infection employing a “tissue cage” (Fernandez J A, et. al. (1997) Antimicrob. Agents Chemother. 43(3):667-671) was adopted. In this system, a wiffle ball is surgically implanted subcutaneously in the dorsal cervical area. The model allows the infectious agents to be localized within an easily accessible fluid compartment, a tissue pouch, and has been used to assess the efficacy of antibiotics against bacteria.
In the final phase of the study, the immunized and non-immunized rabbits were inoculated with 6.2 log 10 colony forming units (CFUs) of S. aureus (ATCC 29213) directly into the wiffle-ball compartments.
The bacterial counts and test subject viability were monitored over the course of two weeks for bacterial counts and survival. The data shown in FIG. 13 indicate that during the first week of the study, the average bacterial counts for control animals were several logs higher than cleavage site specific vaccinated animals. For example, on day 2 the control had 7.2 log10 CFU/ml wiffle ball fluid while the immunized group had 5.2 log10 CFU/ml wiffle ball fluid.

[3] = system: human IgG1; assay: Proteinase digestion of purified IgG1, Agilent biosizing; format: biochemical; settings: for disappearance of intact IgG (160,000 Da): Mab1, 1% w/w enzyme, 37° C.
Protocol: A purified monoclonal antibody comprising a human IgG heavy chain was contacted with the proteases described and sampling was conducted over various durations of contact. Fragmentation in the samples was evaluated using the Agilent microfluidics “lab-on-a-chip” technology for in vitro biosizing (Goetz H et al. Biochemical and Biophysical Methods 60; 281-293, 2004).
Proteinase digestions of purified IgGs were carried out at pH 7.5 in phosphate-buffered saline (PBS) or, for the metalloproteinases, in Tris-buffered saline buffer at 37° C. Calcium chloride was included in the metalloproteinase reactions at 1 mM for MMP-12 and 10 mM for MMP-3; otherwise no additives were used. Antibody concentrations were typically 1 or 2 mg/mL and reactions were initiated by addition of enzyme to a 1% (w/w) ratio to IgG. Aliquots (10-20 μL) were removed at indicated times and the reactions were stopped either by adjustment to 20 mM EDTA (metalloproteinase incubations) or to 1 mM iodoacetamide (cysteine proteinases) or by rapid freezing.
The major proteolytic cleavage positions in the IgG1 hinge were identified for enzyme-generated fragments by N-terminal sequencing of the purified Fc fragment (MMP-3 and MMP-12) and/or high resolution mass spectrometric analyses of the purified Fab (neutrophil elastase, plasmin) and F(ab′)2 (cathepsin G, glutamyl endopeptidase and IdeS) fragments. Fragmentation was evaluated using the Agilent microfluidics “lab-on-a-chip” technology.

[4] = system: platelet surface IIb/III3 receptors; assay: Platelet aggregation assay; format: cell-based; settings: 5 μM adenosine diphosphate (ADP), compared with intact c7E3 IgG
Protocol: c7E3 inhibits platelet aggregation by binding to platelet surface IIb/III3 receptors—thereby blocking the ability of fibrinogen to bind to the receptors on activated platelets and to clump them together. The respective inhibitory profiles of intact and single-cleaved c7E3 IgG were tested in a platelet aggregation assay. Platelet aggregation is measured as an increase of light transmission through a platelet suspension after activation with a physiological agonist. The inhibition is compared to control aggregation to 5 μM adenosine diphosphate (ADP). The percent inhibition was calculated as: control aggregation−test aggregation×100%, divided by control aggregation.

[5] = system: platelets; assay: Restoration of function study in dogs, platelet counts; format: in vivo; settings: c7E3 variants 0.05 mg/kg, mAb 2095-2 0.5 mg/kg after 10 min delay, groups of 3 animals
Protocol: To be consistent with the prior experiments, the variants of c7E3 were all administered at the 0.05 mg/kg dose. The unique aspect of the experiment (groups 6 and 7) involves the infusion of the first targeting mAb followed by the cleavage site specific mAb after a 10 minute delay. The cleavage site specific IdeS cleavage site mAb, 2095-2, was administered at 0.5 mg/kg; 10-fold higher than the dose used for all of the c7E3 variants. The higher dose was chosen in order to maximize the complexation of cleavage site specific mAb with platelet-bound c7E3 variants. All mAbs were delivered by slow infusion over a 20 minute period. Platelet counts were monitored over a 96-hour period. The platelet counts were normalized to the pre-dose count within each animal for clarity of presentation and to minimize the normal variability in numerical platelet counts in these small 3-animal groups.

[6] = system: platelets; assay: Test infusions of c7E3 IgG in dogs, platelet depletion; format: in vivo; settings: 0.05 mg/kg dose, calculated
Source text: First, the c7E3 antibody antigen binding and platelet depletion parameters were established in dogs.

[7] = system: platelets; assay: Platelet counts in dogs, intact versus single-cleaved c7E3 IgG; format: in vivo; settings: 0.05 mg/kg
Protocol: c7E3 IgG and c7E3 IgG single-cleaved by IdeS protease were also compared in vivo. Three groups of 5 animals received either saline control, intact c7E3 IgG (0.05 mg/kg) or c7E3 single-cleaved IgG (0.05 mg/kg). Platelet counts were monitored at baseline and at 2, 24, 48, 72 and 96 hours post-administration. Limiting the study to 5 days minimized the likelihood of anti-c7E3 immune responses that might confound the interpretation of the results. The results are presented in FIG. 3 as the mean platelet count±SD for each animal group at each time point. The extent of the error bars connotes the normal variability of platelet counts in different animals (for example, the predose counts for the 5 animals in the single-cleaved IgG treatment group were 175,000, 355,000, 305,000, 276,000 and 334,000 per μL, respectively).

Chain of human IgG1 (P01857 99-224 limits assumed): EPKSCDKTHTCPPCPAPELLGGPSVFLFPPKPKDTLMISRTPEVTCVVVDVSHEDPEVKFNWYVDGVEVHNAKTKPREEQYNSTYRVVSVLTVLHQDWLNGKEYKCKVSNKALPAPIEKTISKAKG

Molecule: Biotin-TSPPSPAPALLG [E233A]
- ka(M-1s-1) × 10^−5 [1]: 7.29 ± 0.03 M-1s-1 × 10^−5
- kd [1]: 0.1070 ± 0.04 s⁻¹

Molecule: Biotin-TSPPSPAPEALG [L234A]
- ka(M-1s-1) × 10^−5 [1]: 1.24 ± 0.01 M-1s-1 × 10^−5
- kd [1]: 1.03 ± 0.01 s⁻¹

Molecule: Biotin-TSPPSPAPELLG [Wt]
- ka(M-1s-1) × 10^−5 [1]: 5.22 ± 0.04 M-1s-1 × 10^−5
- kd [1]: 0.00443 ± 0.02 s⁻¹

Molecule: C-T-S-P-P-S-P-S-P-A-P-E (CTSPPSPSPAPE; also: conjugated to KLH) [GluV8-cleavage site peptide analogue]
- bacterial count [2]: 5.2 log10 CFU/ml wiffle ball fluid

Molecule: Glutamyl endopeptidase I (Glu V8 protease): Staph. aureus serine endopeptidase
- disappearance of intact IgG (160,000 Da) [3]: several hours

Molecule: Stromelysin (MMP-3): human metalloendopeptidase
- disappearance of intact IgG (160,000 Da) [3]: several hours

Molecule: Tryptase: human serine endopeptidase
- Major Product ([3]; human IgG1, None denotes no detectable cleavage in 24 hours): None

Molecule: c7E3 sc IgG: c7E3 IgG single-cleaved by IdeS protease
- binding/inhibition of platelet aggregation after single lower hinge cleavage [4]: no loss of binding/inhibition
- effect on platelet numbers [5]: without effect on platelet numbers

B1: c7E3 IgG: anti-platelet integrin (αIIbβIIIa) murine-human IgG1 chimeric antibody (antibody, chains of the INN, looked up, V domains shown)
VH: EVQLQQSGTVLARPGASVKMSCEASGYTFTNYWMHWVKQRPGQGLEWIGAIYPGNSDTSYIQKFKGKAKLTAVTSTTSVYMELSSLTNEDSAVYYCTLYDGYYVFAYWGQGTLVTVSA
VL: EIVLTQSPVTLSVTPGDSVSLSCRASRDISNNLHWFQQTSHESPRLLIKYASQSMSGIPSRFSGSGSGTDFTLSINSVETEDFGMYFCQQTNSWPYTFGGGTKLEIK
modifications: IgG1
notes: anti-platelet integrin (αIIbβIIIa) murine-human IgG1 chimeric antibody
- αIIbβ3 receptor blockade [6]: about 5%
- nadir of platelet numbers [7]: 24 h
- recovery of platelet counts ([7]; by 96 hours): approximately 50 % of the pre-dose level
- effect on platelet numbers ([7]; groups of 5 animals, 96-hour monitoring): substantial decrease of platelet numbers

B2: c7E3 F(ab′)2: F(ab′)2 of c7E3 prepared using the bacterial enzyme IdeS (antibody, chains of the INN, looked up, V domains shown)
VH: EVQLQQSGTVLARPGASVKMSCEASGYTFTNYWMHWVKQRPGQGLEWIGAIYPGNSDTSYIQKFKGKAKLTAVTSTTSVYMELSSLTNEDSAVYYCTLYDGYYVFAYWGQGTLVTVSA
VL: EIVLTQSPVTLSVTPGDSVSLSCRASRDISNNLHWFQQTSHESPRLLIKYASQSMSGIPSRFSGSGSGTDFTLSINSVETEDFGMYFCQQTNSWPYTFGGGTKLEIK
modifications: F(ab')2 IdeS-generated
notes: F(ab′)2 of c7E3 prepared using the bacterial enzyme IdeS
- effect on platelet numbers [5]: without effect on platelet numbers
